Measurements taken from patent US12551493B2, “Composition for enhancing therapeutic effect of stem cell, comprising immunosuppressant, and method for enhancing therapeutic effect of stem cell using same” (SAMSUNG LIFE PUBLIC WELFARE FOUNDATION, priority 2019, dated 2026).

Experiments:
Type in all cases: in vivo
Iba-1 microglia = test: IHC of Iba-1 microglia in mouse brain after hMSC administration; settings: normal C57B/L6 mice, hMSCs plus immunosuppressant, day 7, compared to hMSC group
Experimental: (§1) On day 7 after administration of MEM or hMSCs, the brain was extracted by performing cardiac perfusion, and then fixed in PFA, and histological staining was performed by sectioning tissue.
(§2) MEM or hMSCs were administered to normal C57BL/6 and immunodeficient BALB/c nude mice under the same conditions as in Example 3. […]

helper T cells (CD4) = test: IHC of helper T cells (CD4) in mouse brain after hMSC administration; settings: normal C57B/L6 mice, hMSCs plus immunosuppressant, day 7, compared to hMSC group
Experimental: as §1, §2

[1] = system: human-derived mesenchymal stem cells (hMSCs); test: qPCR of human-specific ALU DNA sequence in mouse brain (residual amount of hMSCs); settings: normal C57B/L6 mice, hMSCs plus immunosuppressant, compared to hMSC-alone administration group

C=CC[C@@H]1/C=C(\C)C[C@H](C)C[C@H](OC)[C@H]2O[C@@](O)(C(=O)C(=O)N3CCCC[C@H]3C(=O)O[C@H](/C(C)=C/[C@@H]3CC[C@@H](O)[C@H](OC)C3)[C@H](C)[C@@H](O)CC1=O)[C@H](C)C[C@@H]2OC [tacrolimus]
expression of Iba-1 (IHC) (Iba-1 microglia): not statistically significant
expression of CD4 (IHC) (helper T cells (CD4)): reduced
retention rate (survival rate) of stem cells (qPCR) [1]: enhanced
